Results: patent US7964613B2 (Asahi Kasei Pharma Corporation, priority 2007, dated 2011)

Columns and labels:
[1] = system: rabbit normal intraocular pressure; test: Intraocular pressure reducing action; type: in vivo, Japanese white rabbit; conditions: Oryctolagus cuniculus, topical; 3 mM aqueous solution, 50 μl to the left eye; max IOP reduction (2, 4, 6 hours) / value immediately before administration; read-out: intraocular pressure reducing degree
Experimental: A Japanese white rabbit having a body weight of about 2 kg was placed in a positioner and naturalized for one week before the experiment. An opthalmologic local anesthesant (Benoxil) was administered to both eyes, and then intraocular pressure was measured by using a tonometer (Classic 30, Solan). A 3 mM aqueous solution of a test compound was administered in a volume of 50 μl to the left eye, and the right eye was not treated (control eye). The intraocular pressure values were measured for the left and right eyes immediately before, and 2, 4 and 6 hours after the administration of the aqueous solution of the test compound, and the difference of the measured values for the left and right eyes was considered an intraocular pressure reduction value of the test medicament at each measurement time. The largest difference of the values for the left and right eyes among the measured values at the measurement times (after 2, 4 and 6 hours) was considered the maximum intraocular pressure reduction value (max ? IOP) of each test medicament. The intraocular pressure reducing degree representing the intraocular pressure reducing action of each test medicament was calculated according to the following formula. Since rabbits show significant daily variation of intraocular pressure, daily variation is added when change of intraocular pressure is measured over time, and the intraocular pressure reducing action may be overestimated. Therefore, we used this calculation method of intraocular pressure reduction value in order to minimize the influence of the variation. Intraocular pressure reducing degree(%)=(max ? IOP/Intraocular pressure value immediately before administration)×100

human ROCK1 = molecular target: T1, human ROCK1 (Homo sapiens, UniProt Q13464); test: Measurement of Rho kinase inhibitory activity (ELISA of MBS phosphorylation); type: biochemical; conditions: human ROCK1, MBS substrate, 100 μM ATP, 30° C. for 10 minutes
T1 construct: His tag (N); host or cells: insect cells (Sf9)
Experimental: In this test, human ROCK1 was used as Rho kinase, MBS (myosin binding subunit, subunit constituting myosin phosphatase) was used as the substrate of Rho kinase, and an anti-phosphorylated MBS antibody was used for detection of phosphorylation. The activity for inhibiting Rho kinase was determined by measuring phosphorylation of MBS by the Rho kinase by ELISA in the presence of an appropriately diluted test compound. As the Rho kinase used, a recombinant protein (N-terminal His-tagged recombinant human ROCK1 residues (1Met-[…])) was used, which was produced in insect cells (Sf9) using a sequence (1-727), of which activity was confirmed in the paper of Ishizaki et al. (Ishizaki, T. et al., FEBS Letters, 404, pp 118-124, 1997), based on the sequence of human ROCK1 (p 160 ROCK) described in the report of Ishizaki et al. (Ishizaki, T. et al., EMBO J., 15, pp 1885-1893, 1996). Further, as the MBS protein and anti-phosphorylated MBS antibody, those prepared according to the method described in the paper of Ito et al. (Ito, K et al., J. Physiol., 546, pp 823-836, 2003) were used.
A solution of MBS (Asahi Kasei Pharma, lot No, 040814n7-10) diluted with PBS to an appropriate concentration was added to an ELISA plate (Maxisorp, Nunc), and left, stand overnight at 4° C., and then the wells were washed twice with a washing solution (WB, washing buffer, 0.1% Tween 20/PBS). To the wells were added 1% bovine serum albumin (Sigma)/PBS, and left for 1 to 3 hours, and then the wells were washed 5 times with WB to prepare a substrate-immobilized plate. Onto this plate, a reaction mixture (5 mM MgSO4/0.1 M NaCl/20 mM HEPES (pH 7.5)/100 μM ATP/5 mM DTT), a test compound, and appropriately diluted human ROCK1 (Asahi Kasei Pharma, lot No, 030126.120-22) were added, and then reacted at 30° C. for 10 minutes. Then, 0.2 M EDTA (pH 7.5) was added to terminate the reaction, and the wells were washed 5 times with WB. A rabbit anti-phosphorylated MBS antibody solution (Asahi Kasei Pharma, lot No, 122676431) diluted 10,000 times with WB containing 1% bovine serum albumin was added to the wells, and after the reaction for 1 hour, the wells were washed 5 times with WB. Goat anti-rabbit IgG-HRP (Zymed) diluted 1,000 times with WB containing 1% bovine serum albumin was added to the wells as the secondary detection antibody and the mixture was reacted for 1 hour, and then the wells were washed 5 times with WB. An OPD (o-phenylenediamine) solution (1 mg/ml OPD, Sigma), 5.1 g/l of citric acid monohydrate, and 18.4 g/l of Na2HPO4.12H2O were added to the wells to develop color, […] was added 5 minutes later to terminate the color development, and absorbance was measured at 490 nm.
The inhibition ratio was calculated as follows. Inhibition ratio(%)=[…]
Further, the inhibition ratio was calculated with changing the concentration of the test compound, and a compound concentration providing an inhibition ratio of 50% was obtained as IC50.

T1 sequence (Q13464 1-727): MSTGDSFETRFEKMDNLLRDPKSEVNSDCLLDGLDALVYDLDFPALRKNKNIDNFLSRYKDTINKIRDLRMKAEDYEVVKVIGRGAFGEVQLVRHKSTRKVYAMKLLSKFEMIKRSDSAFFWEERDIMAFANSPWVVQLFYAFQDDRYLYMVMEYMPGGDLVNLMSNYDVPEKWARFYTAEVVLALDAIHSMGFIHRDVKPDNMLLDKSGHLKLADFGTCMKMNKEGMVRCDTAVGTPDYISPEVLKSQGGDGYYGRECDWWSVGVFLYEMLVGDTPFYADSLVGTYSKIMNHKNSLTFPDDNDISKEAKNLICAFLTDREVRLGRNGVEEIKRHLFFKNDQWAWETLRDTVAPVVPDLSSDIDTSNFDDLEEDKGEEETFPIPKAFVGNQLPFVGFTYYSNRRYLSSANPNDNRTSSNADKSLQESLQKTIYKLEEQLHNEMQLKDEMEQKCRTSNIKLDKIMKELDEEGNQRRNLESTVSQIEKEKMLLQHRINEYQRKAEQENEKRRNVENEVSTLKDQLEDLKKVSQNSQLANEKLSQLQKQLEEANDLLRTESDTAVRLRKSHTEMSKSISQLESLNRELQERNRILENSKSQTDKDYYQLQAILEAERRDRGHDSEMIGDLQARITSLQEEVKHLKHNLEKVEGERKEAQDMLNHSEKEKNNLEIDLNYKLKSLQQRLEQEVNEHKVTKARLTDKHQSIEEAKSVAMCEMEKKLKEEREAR

Structure (SMILES)	IC50 (human ROCK1)	inhibition in vivo at 3000 µM [1]
Cc1cncc2cccc(S(=O)(=O)N3CC[C@@H](N)C3)c12 [Example 8-2, (R)-3-Amino-1-(4-methyl-5-isoquinolinesulfonyl)pyrrolidine]	< 1000 nM	≥ 20%
CCN[C@H]1CCN(S(=O)(=O)c2cccc3cncc(C)c23)C1 [Example 8-4]	< 1000 nM	10 to 20%
Cc1cncc2cccc(S(=O)(=O)N3CC[C@H](NCc4cccn4C)C3)c12 [Example 8-21]	< 1000 nM	10 to 20%
Cc1cncc2cccc(S(=O)(=O)N3CC[C@H](NCC4CC4)C3)c12 [Example 8-26]	< 1000 nM	5 to 10%
Cc1cncc2cccc(S(=O)(=O)N3CC[C@H](NC(C)C)C3)c12 [Example 8-27]	1000 to 3000 nM	10 to 20%
Cc1cncc2cccc(S(=O)(=O)N3CC[C@H](NC4CCC4)C3)c12 [Example 8-28]	< 1000 nM	5 to 10%
Cc1cncc2cccc(S(=O)(=O)N3CC[C@H](NC4CCCC4)C3)c12 [Example 8-29]	1000 to 3000 nM	5 to 10%
Cc1cncc2cccc(S(=O)(=O)N3CC[C@H](NC4CCCCC4)C3)c12 [Example 8-30]	1000 to 3000 nM	5 to 10%
Cc1cncc2cccc(S(=O)(=O)N3CC[C@H](NC4CCOCC4)C3)c12 [Example 8-31]	1000 to 3000 nM	10 to 20%
Cc1cncc2cccc(S(=O)(=O)N3CC[C@H](NCCN)C3)c12 [Example 8-32]	< 1000 nM	5 to 10%
C=CCN[C@H]1CCN(S(=O)(=O)c2cccc3cncc(C)c23)C1 [Example 8-34]	< 1000 nM	5 to 10%
Cc1cncc2cccc(S(=O)(=O)N3CC[C@H](NCCc4ccccc4)C3)c12 [Example 8-37]	< 1000 nM	5 to 10%
C=Cc1cncc2cccc(S(=O)(=O)N3CC[C@H](N)C3)c12 [Example 9-1, (S)-3-Amino-1-(4-vinyl-5-isoquinolinesulfonyl)pyrrolidine]	< 1000 nM	≥ 20%
C#Cc1cncc2cccc(S(=O)(=O)N3CC[C@H](NCc4ccc(OC)cc4)C3)c12 [Example 10-7]	< 1000 nM	10 to 20%
Nc1cncc2cccc(S(=O)(=O)N3CC[C@H](N)C3)c12 [Example 12-1, (S)-3-Amino-1-(4-amino-5-isoquinolinesulfonyl)pyrrolidine]	1000 to 3000 nM	10 to 20%
COc1cncc2cccc(S(=O)(=O)N3CC[C@H](N)C3)c12 [Example 15-1, (S)-3-Amino-1-(4-methoxy-5-isoquinolinesulfonyl)pyrrolidine]	1000 to 3000 nM	5 to 10%
COc1ccc(CN[C@H]2CCN(S(=O)(=O)c3cccc4cncc(F)c34)C2)cc1 [Example 18-7]	< 1000 nM	5 to 10%
N[C@@H]1CCN(S(=O)(=O)c2cccc3cncc(Cl)c23)C1 [Example 19-2, (R)-3-Amino-1-(4-chloro-5-isoquinolinesulfonyl)pyrrolidine]	< 1000 nM	≥ 20%
NCCN[C@H]1CCN(S(=O)(=O)c2cccc3cncc(Cl)c23)C1 [Example 19-32]	1000 to 3000 nM	≥ 20%
CC(N)C1CCN(S(=O)(=O)c2cccc3cncc(Cl)c23)CC1 (centres unmarked) [Example 53]	< 1000 nM	10 to 20%

Continued, in another order:

IC50 (human ROCK1)	Structure (SMILES)	inhibition in vivo at 3000 µM [1]
< 1000 nM	O=S(=O)(c1cccc2cncc(Cl)c12)N1CC[C@H](NCc2ccc3c(c2)OCCO3)C1 [Example 19-40]	5 to 10%
1000 to 3000 nM	N[C@H]1CCCN(S(=O)(=O)c2cccc3cncc(Cl)c23)C1 [Example 21-1, (S)-3-Amino-1-(4-chloro-5-isoquinolinesulfonyl)piperidine]	≥ 20%
1000 to 3000 nM	N[C@@H]1CCCN(S(=O)(=O)c2cccc3cncc(Cl)c23)C1 [Example 21-2, (R)-3-Amino-1-(4-chloro-5-isoquinolinesulfonyl)piperidine]	10 to 20%
< 1000 nM	Cc1cncc2cccc(S(=O)(=O)N3CCC[C@H](N)C3)c12 [Example 22-1, (S)-3-Amino-1-(4-methyl-5-isoquinolinesulfonyl)piperidine]	10 to 20%
< 1000 nM	Cc1cncc2cccc(S(=O)(=O)N3CCC[C@@H](N)C3)c12 [Example 22-2, (R)-3-Amino-1-(4-methyl-5-isoquinolinesulfonyl)piperidine]	10 to 20%
< 1000 nM	CCc1cncc2cccc(S(=O)(=O)N3CC[C@H](N)C3)c12 [Example 23-1, (S)-3-Amino-1-(4-ethyl-5-isoquinolinesulfonyl)pyrrolidine]	10 to 20%
< 1000 nM	Cc1cnc(O)c2cccc(S(=O)(=O)N3CC[C@H](N)C3)c12 [Example 25-1, (S)-3-Amino-1-(1-hydroxy-4-methyl-5-isoquinolinesulfonyl)pyrrolidine]	10 to 20%
< 1000 nM	Cc1cncc2cccc(S(=O)(=O)N3CC(N)C3)c12 [Example 26, 3-Amino-1-(4-methyl-5-isoquinolinesulfonyl)azetidine]	5 to 10%
< 1000 nM	CN[C@@H]1CCN(S(=O)(=O)c2cccc3cncc(C)c23)C1 [Example 27, (R)-3-(Methylamino)-1-(4-methyl-5-isoquinolinesulfonyl)pyrrolidine]	5 to 10%
< 1000 nM	N[C@H]1CCN(S(=O)(=O)c2cccc3c(O)ncc(Cl)c23)C1 [Example 30-1, (S)-3-Amino-1-(1-hydroxy-4-chloro-5-isoquinolinesulfonyl)pyrrolidine]	≥ 20%
1000 to 3000 nM	CN[C@@H]1CCN(S(=O)(=O)c2cccc3c(O)ncc(Cl)c23)C1 [Example 36-2, (R)-1-(1-Hydroxy-4-chloro-5-isoquinolinesulfonyl)-3-(methylamino)pyrrolidine]	10 to 20%
1000 to 3000 nM	O=S(=O)(c1cccc2c(O)ncc(Br)c12)N1CC[C@H](NCc2ccco2)C1 [Example 38-1, (S)-1-(1-Hydroxy-4-bromo-5-isoquinolinesulfonyl)-3-(2-furylmethylamino)pyrrolidine]	5 to 10%
1000 to 3000 nM	CC(N)C1CCN(S(=O)(=O)c2cccc3cncc(Cl)c23)C1 (centres unmarked) [Example 45, 3-(1-Aminoethyl)-1-(4-chloro-5-isoquinolinesulfonyl)pyrrolidine]	5 to 10%
1000 to 3000 nM	CNCC(=O)N[C@H]1CCN(S(=O)(=O)c2cccc3cncc(Cl)c23)C1 [Example 51-1, (S)-3-(2-Methylaminoacetyl)amino-1-(4-chloro-5-isoquinolinesulfonyl)pyrrolidine]	10 to 20%
